ChEMBL document CHEMBL3390848, “Affinity selection and sequence-activity relationships of HIV-1 membrane fusion inhibitors directed at the drug-resistant variants” (Medchemcomm, 2010)
Residues, ends and D or L forms follow the SMILES beside them.

Tests used:
[1] = test system: Human immunodeficiency virus 1; assay: Antiviral activity against HIV1 NL4-3 harboring gp41 D36G mutant infected in human HeLa cells expressing CD4-LTR-beta-gal assessed as inhibition of viral replication after 48 hrs by MAGI assay; type: functional, organism-based
[2] = test system: Human immunodeficiency virus 1; assay: Binding affinity to HIV1 His-tagged N-terminal heptad repeat of envelope glycoprotein gp41 assessed as recovery of N54-drug complex after 2 hrs by LC-MS analysis; set-up: concentration or dose not given beside the values
[3] = test system: Human immunodeficiency virus 1; assay: Thermal stability of HIV1 envelope glycoprotein gp41 His-tagged N-terminal heptad repeat N54-drug complex assessed as thermal unfolding transition state by measuring molar ellipticity at 4 to 90 degC by circular dichroic spectra analysis

| Compound | EC50 [1] [nM] | Activity [2] [%] | Tm [3] [°C] |
| --- | --- | --- | --- |
| CC[C@H](C)[C@H](NC(=O)[C@H](CC(C)C)NC(=O)[C@H](CCC(=O)O)NC(=O)[C@H](CCC(=O)O)NC(=O)[C@@H](NC(=O)[C@H](CC(C)C)NC(=O)[C@H](CO)NC(=O)[C@@H](NC(=O)[C@H](Cc1ccc(O)cc1)NC(C)=O)[C@@H](C)O)[C@@H](C)CC)C(=O)N[C@@H](CCCCN)C(=O)N[C@@H](CCCCN)C(=O)NCC(=O)N[C@@H](CCC(=O)O)C(=O)N[C@@H](CCC(=O)O)C(=O)N[C@@H](CCC(N)=O)C(=O)N[C@@H](CCC(N)=O)C(=O)N[C@@H](CCCCN)C(=O)N[C@@H](CCCCN)C(=O)N[C@@H](CC(N)=O)C(=O)N[C@@H](CCC(=O)O)C(=O)N[C@@H](CCC(=O)O)C(=O)N[C@@H](CCC(=O)O)C(=O)N[C@@H](CC(C)C)C(=O)N[C@@H](CCCCN)C(=O)N[C@@H](CCCCN)C(=O)N[C@@H](CC(C)C)C(=O)N[C@@H](CCC(=O)O)C(=O)N[C@@H](CCC(=O)O)C(=O)N[C@@H](Cc1c[nH]c2ccccc12)C(=O)N[C@@H](C)C(=O)N[C@@H](CCCCN)C(=O)N[C@@H](CCCCN)C(=O)N[C@@H](Cc1c[nH]c2ccccc12)C(=O)N[C@@H](CC(N)=O)C(=O)N[C@@H](Cc1c[nH]c2ccccc12)C(=O)N[C@@H](Cc1ccccc1)C(N)=O (Ac-YTSLIEELIKKGEEQQKKNEEELKKLEEWAKKWNWF-NH2) | 0.4 | 9.6 | 76.7 |
| CC[C@H](C)[C@H](NC(=O)[C@H](CC(C)C)NC(=O)[C@H](CCC(=O)O)NC(=O)[C@H](CCC(=O)O)NC(=O)[C@@H](NC(=O)[C@H](CC(C)C)NC(=O)[C@H](CO)NC(=O)[C@@H](NC(=O)[C@H](Cc1ccc(O)cc1)NC(C)=O)[C@@H](C)O)[C@@H](C)CC)C(=O)N[C@@H](CCCCN)C(=O)N[C@@H](CCCCN)C(=O)N[C@@H](Cc1cnc[nH]1)C(=O)N[C@@H](CCC(=O)O)C(=O)N[C@@H](CCC(=O)O)C(=O)N[C@@H](CCC(N)=O)C(=O)N[C@@H](CCC(N)=O)C(=O)N[C@@H](CCCCN)C(=O)N[C@@H](CCCCN)C(=O)N[C@@H](CC(N)=O)C(=O)N[C@@H](CCC(=O)O)C(=O)N[C@@H](CCC(=O)O)C(=O)N[C@@H](CCC(=O)O)C(=O)N[C@@H](CC(C)C)C(=O)N[C@@H](CCCCN)C(=O)N[C@@H](CCCCN)C(=O)N[C@@H](CC(C)C)C(=O)N[C@@H](CCC(=O)O)C(=O)N[C@@H](CCC(=O)O)C(=O)N[C@@H](Cc1c[nH]c2ccccc12)C(=O)N[C@@H](C)C(=O)N[C@@H](CCCCN)C(=O)N[C@@H](CCCCN)C(=O)N[C@@H](Cc1c[nH]c2ccccc12)C(=O)N[C@@H](CC(N)=O)C(=O)N[C@@H](Cc1c[nH]c2ccccc12)C(=O)N[C@@H](Cc1ccccc1)C(N)=O (Ac-YTSLIEELIKKHEEQQKKNEEELKKLEEWAKKWNWF-NH2) | 35 | 3.2 | 58.5 |
| CC[C@H](C)[C@H](NC(=O)[C@H](CC(C)C)NC(=O)[C@H](CCC(=O)O)NC(=O)[C@H](CCC(=O)O)NC(=O)[C@@H](NC(=O)[C@H](CC(C)C)NC(=O)[C@H](CO)NC(=O)[C@@H](NC(=O)[C@H](Cc1ccc(O)cc1)NC(C)=O)[C@@H](C)O)[C@@H](C)CC)C(=O)N[C@@H](CCCCN)C(=O)N[C@@H](CCCCN)C(=O)N[C@H](C(=O)N[C@@H](CCC(=O)O)C(=O)N[C@@H](CCC(=O)O)C(=O)N[C@@H](CCC(N)=O)C(=O)N[C@@H](CCC(N)=O)C(=O)N[C@@H](CCCCN)C(=O)N[C@@H](CCCCN)C(=O)N[C@@H](CC(N)=O)C(=O)N[C@@H](CCC(=O)O)C(=O)N[C@@H](CCC(=O)O)C(=O)N[C@@H](CCC(=O)O)C(=O)N[C@@H](CC(C)C)C(=O)N[C@@H](CCCCN)C(=O)N[C@@H](CCCCN)C(=O)N[C@@H](CC(C)C)C(=O)N[C@@H](CCC(=O)O)C(=O)N[C@@H](CCC(=O)O)C(=O)N[C@@H](Cc1c[nH]c2ccccc12)C(=O)N[C@@H](C)C(=O)N[C@@H](CCCCN)C(=O)N[C@@H](CCCCN)C(=O)N[C@@H](Cc1c[nH]c2ccccc12)C(=O)N[C@@H](CC(N)=O)C(=O)N[C@@H](Cc1c[nH]c2ccccc12)C(=O)N[C@@H](Cc1ccccc1)C(N)=O)[C@@H](C)CC (Ac-YTSLIEELIKKIEEQQKKNEEELKKLEEWAKKWNWF-NH2) | 0.4 | 10.4 | 79.7 |
| CC[C@H](C)[C@H](NC(=O)[C@H](CC(C)C)NC(=O)[C@H](CCC(=O)O)NC(=O)[C@H](CCC(=O)O)NC(=O)[C@@H](NC(=O)[C@H](CC(C)C)NC(=O)[C@H](CO)NC(=O)[C@@H](NC(=O)[C@H](Cc1ccc(O)cc1)NC(C)=O)[C@@H](C)O)[C@@H](C)CC)C(=O)N[C@@H](CCCCN)C(=O)N[C@@H](CCCCN)C(=O)N[C@@H](CCCCN)C(=O)N[C@@H](CCC(=O)O)C(=O)N[C@@H](CCC(=O)O)C(=O)N[C@@H](CCC(N)=O)C(=O)N[C@@H](CCC(N)=O)C(=O)N[C@@H](CCCCN)C(=O)N[C@@H](CCCCN)C(=O)N[C@@H](CC(N)=O)C(=O)N[C@@H](CCC(=O)O)C(=O)N[C@@H](CCC(=O)O)C(=O)N[C@@H](CCC(=O)O)C(=O)N[C@@H](CC(C)C)C(=O)N[C@@H](CCCCN)C(=O)N[C@@H](CCCCN)C(=O)N[C@@H](CC(C)C)C(=O)N[C@@H](CCC(=O)O)C(=O)N[C@@H](CCC(=O)O)C(=O)N[C@@H](Cc1c[nH]c2ccccc12)C(=O)N[C@@H](C)C(=O)N[C@@H](CCCCN)C(=O)N[C@@H](CCCCN)C(=O)N[C@@H](Cc1c[nH]c2ccccc12)C(=O)N[C@@H](CC(N)=O)C(=O)N[C@@H](Cc1c[nH]c2ccccc12)C(=O)N[C@@H](Cc1ccccc1)C(N)=O (Ac-YTSLIEELIKKKEEQQKKNEEELKKLEEWAKKWNWF-NH2) | 330 | 0.8 | 50.6 |
| CC[C@H](C)[C@H](NC(=O)[C@H](CC(C)C)NC(=O)[C@H](CCC(=O)O)NC(=O)[C@H](CCC(=O)O)NC(=O)[C@@H](NC(=O)[C@H](CC(C)C)NC(=O)[C@H](CO)NC(=O)[C@@H](NC(=O)[C@H](Cc1ccc(O)cc1)NC(C)=O)[C@@H](C)O)[C@@H](C)CC)C(=O)N[C@@H](CCCCN)C(=O)N[C@@H](CCCCN)C(=O)N[C@@H](CCSC)C(=O)N[C@@H](CCC(=O)O)C(=O)N[C@@H](CCC(=O)O)C(=O)N[C@@H](CCC(N)=O)C(=O)N[C@@H](CCC(N)=O)C(=O)N[C@@H](CCCCN)C(=O)N[C@@H](CCCCN)C(=O)N[C@@H](CC(N)=O)C(=O)N[C@@H](CCC(=O)O)C(=O)N[C@@H](CCC(=O)O)C(=O)N[C@@H](CCC(=O)O)C(=O)N[C@@H](CC(C)C)C(=O)N[C@@H](CCCCN)C(=O)N[C@@H](CCCCN)C(=O)N[C@@H](CC(C)C)C(=O)N[C@@H](CCC(=O)O)C(=O)N[C@@H](CCC(=O)O)C(=O)N[C@@H](Cc1c[nH]c2ccccc12)C(=O)N[C@@H](C)C(=O)N[C@@H](CCCCN)C(=O)N[C@@H](CCCCN)C(=O)N[C@@H](Cc1c[nH]c2ccccc12)C(=O)N[C@@H](CC(N)=O)C(=O)N[C@@H](Cc1c[nH]c2ccccc12)C(=O)N[C@@H](Cc1ccccc1)C(N)=O (Ac-YTSLIEELIKKMEEQQKKNEEELKKLEEWAKKWNWF-NH2) | 0.2 | 9.9 | 79 |
| CC[C@H](C)[C@H](NC(=O)[C@H](CC(C)C)NC(=O)[C@H](CCC(=O)O)NC(=O)[C@H](CCC(=O)O)NC(=O)[C@@H](NC(=O)[C@H](CC(C)C)NC(=O)[C@H](CO)NC(=O)[C@@H](NC(=O)[C@H](Cc1ccc(O)cc1)NC(C)=O)[C@@H](C)O)[C@@H](C)CC)C(=O)N[C@@H](CCCCN)C(=O)N[C@@H](CCCCN)C(=O)N[C@@H](CC(N)=O)C(=O)N[C@@H](CCC(=O)O)C(=O)N[C@@H](CCC(=O)O)C(=O)N[C@@H](CCC(N)=O)C(=O)N[C@@H](CCC(N)=O)C(=O)N[C@@H](CCCCN)C(=O)N[C@@H](CCCCN)C(=O)N[C@@H](CC(N)=O)C(=O)N[C@@H](CCC(=O)O)C(=O)N[C@@H](CCC(=O)O)C(=O)N[C@@H](CCC(=O)O)C(=O)N[C@@H](CC(C)C)C(=O)N[C@@H](CCCCN)C(=O)N[C@@H](CCCCN)C(=O)N[C@@H](CC(C)C)C(=O)N[C@@H](CCC(=O)O)C(=O)N[C@@H](CCC(=O)O)C(=O)N[C@@H](Cc1c[nH]c2ccccc12)C(=O)N[C@@H](C)C(=O)N[C@@H](CCCCN)C(=O)N[C@@H](CCCCN)C(=O)N[C@@H](Cc1c[nH]c2ccccc12)C(=O)N[C@@H](CC(N)=O)C(=O)N[C@@H](Cc1c[nH]c2ccccc12)C(=O)N[C@@H](Cc1ccccc1)C(N)=O (Ac-YTSLIEELIKKNEEQQKKNEEELKKLEEWAKKWNWF-NH2) | 4.8 | 3.5 | 65.7 |
| CC[C@H](C)[C@H](NC(=O)[C@H](CC(C)C)NC(=O)[C@H](CCC(=O)O)NC(=O)[C@H](CCC(=O)O)NC(=O)[C@@H](NC(=O)[C@H](CC(C)C)NC(=O)[C@H](CO)NC(=O)[C@@H](NC(=O)[C@H](Cc1ccc(O)cc1)NC(C)=O)[C@@H](C)O)[C@@H](C)CC)C(=O)N[C@@H](CCCCN)C(=O)N[C@@H](CCCCN)C(=O)N[C@@H](CCC(N)=O)C(=O)N[C@@H](CCC(=O)O)C(=O)N[C@@H](CCC(=O)O)C(=O)N[C@@H](CCC(N)=O)C(=O)N[C@@H](CCC(N)=O)C(=O)N[C@@H](CCCCN)C(=O)N[C@@H](CCCCN)C(=O)N[C@@H](CC(N)=O)C(=O)N[C@@H](CCC(=O)O)C(=O)N[C@@H](CCC(=O)O)C(=O)N[C@@H](CCC(=O)O)C(=O)N[C@@H](CC(C)C)C(=O)N[C@@H](CCCCN)C(=O)N[C@@H](CCCCN)C(=O)N[C@@H](CC(C)C)C(=O)N[C@@H](CCC(=O)O)C(=O)N[C@@H](CCC(=O)O)C(=O)N[C@@H](Cc1c[nH]c2ccccc12)C(=O)N[C@@H](C)C(=O)N[C@@H](CCCCN)C(=O)N[C@@H](CCCCN)C(=O)N[C@@H](Cc1c[nH]c2ccccc12)C(=O)N[C@@H](CC(N)=O)C(=O)N[C@@H](Cc1c[nH]c2ccccc12)C(=O)N[C@@H](Cc1ccccc1)C(N)=O (Ac-YTSLIEELIKKQEEQQKKNEEELKKLEEWAKKWNWF-NH2) | 7.9 | 2.2 | 60 |
